Test results published in publication PMC9027957, “Interspecies Comparisons of the Effects of Potential Antiviral 3-Amidinophenylalanine Derivatives on Cytochrome P450 1A2 Isoenzyme” (Veterinary Sciences, 2022).

Legend:
[1] = molecular target: T1, CYP1A2 (Rattus norvegicus, UniProt P04799); experiment: CYP1A2 fluorometric activity assay in rat hepatic microsomes; type: in vitro ADME, rat (Sprague–Dawley); set-up: Rat (Sprague–Dawley) and beagle (Gibco, Biocenter, Szeged, Hungary, protein concentration: 20 mg/mL) hepatic microsomal preparations; tissue Gibco, Biocenter, Szeged, Hungary; host or cells: liver (hepatic microsomes), Sprague-Dawley rat; details: 15 min at 37 °C
T1 sequence (P04799 1-513): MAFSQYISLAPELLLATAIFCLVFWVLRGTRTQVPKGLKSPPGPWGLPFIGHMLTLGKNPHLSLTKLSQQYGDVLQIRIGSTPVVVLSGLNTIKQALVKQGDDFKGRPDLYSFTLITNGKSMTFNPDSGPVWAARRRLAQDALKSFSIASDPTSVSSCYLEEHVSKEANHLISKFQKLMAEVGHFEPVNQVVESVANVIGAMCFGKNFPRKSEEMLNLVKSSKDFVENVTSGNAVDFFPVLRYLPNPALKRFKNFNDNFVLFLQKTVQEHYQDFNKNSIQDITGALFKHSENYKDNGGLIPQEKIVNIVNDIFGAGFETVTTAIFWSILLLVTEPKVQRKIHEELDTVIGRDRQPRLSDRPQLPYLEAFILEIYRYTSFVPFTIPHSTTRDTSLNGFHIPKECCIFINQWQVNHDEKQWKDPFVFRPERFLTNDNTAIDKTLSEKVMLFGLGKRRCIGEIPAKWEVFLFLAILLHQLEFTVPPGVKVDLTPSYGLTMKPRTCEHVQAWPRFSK
Procedure: (§1) The Biovision CYP assay (BioVision, Inc., Kampenhout, Belgium) utilizes a non-fluorescent CYP1A2 substrate capable of transforming into a highly fluorescent metabolite, which can be detected in the visible range. α-naphthoflavone was used as a CYP1A2 reference inhibitor at 6 µM during the experiments. Rat (Sprague–Dawley) and beagle (Gibco, Biocenter, Szeged, Hungary, protein concentration: 20 mg/mL) hepatic microsomal preparations were prepared separately by mixing 25 µL of the obtained rat or beagle microsomal suspension with 2425 µL assay buffer and with 50 µL NADPH generating system (100×). In the case of the cynomolgus monkey microsomal suspension (Primacyt, Schwerin, Germany, protein concentration: 5 mg/mL), the following volumes were applied: in addition to 100 µL of monkey microsomal suspension, the amount of assay buffer and the NADPH generating system were adjusted in order to ensure the original ratios of these components to reach a final volume of 2500 µL. Rat, beagle, and cynomolgus monkey microsomal suspension aliquots (50 µL) were treated with the protease inhibitor 20 µL, 0–1000 µM), the reference compound α-naphthoflavone (20 µL, 30 µM), or the assay buffer without test compounds (20 µL, background control) for 15 min at 37 °C. After incubation, 30 µL of the appropriate CYP1A2 substrate/NADP+ mixture was added to each well, yielding a final reaction volume of 100 µL/well. The protein contents of the obtained microsomes were analysed using bicinchoninic acid protein assay kit (Pierce BCA kit, Thermo Fisher Scientific, Waltham, MA, USA). […] The fluorescence intensities were measured with a fluorometer (Victor X2 2030, Perkin Elmer, Waltham, MA, USA), using λEx/Em = 406/468 nm.

[2] = 60 min microsomal stability assay (UPLC-MS/MS), cynomolgus monkey liver microsomes; type: in vitro ADME; details: monkey microsomes, 50 µM, 0.6 mg/mL protein, mean ± SD (n = 3)
Procedure: (§2) Rat, beagle (Gibco, Biocenter, Szeged, Hungary), and cynomolgus monkey (Primacyt, Schwerin, Germany) liver microsomes were exposed to inhibitors MI-432, MI-463, MI-482, or MI-1900 at 50 µM for 60 min. The final microsomal protein concentration in the suspension was 0.6 mg/mL in each case. The reaction buffer (100 mM phosphate buffer pH 7.4) also contained 1 mM nicotinamide adenine dinucleotide phosphate (NADPH), 5 mM MgCl2, 10 mM glucose-6-phosphate (G6P), and 2 IU/mL glucose-6-phosphate dehydrogenase (G6PD). The reaction was terminated by the addition of ice-cold acetonitrile (ACN) with the ratio of sample ACN volume = 1:2. The precipitated protein was removed by centrifugation at 10,000× g for 10 min, and the supernatants were used for subsequent analyses.
(§3) The determination of all analytes was carried out using an UPLC/MS/MS system, which consisted of an HPLC apparatus (SCIEX ExionLC^TM UPLC, Framigham, MA, USA) and a SCIEX Qtrap 4500 triple-quadrupole mass spectrometer (Framigham, MA, USA) equipped with a SCIEX Turbo V electrospray ionization source. The HPLC columns used were LiChrospher RP Select B (125 × 4.0 mm, 5.0 μm, C8 stationary phase). Next, 0.1% trifluoroacetic acid in ultra-purified water (A) and acetonitrile (B) were used as mobile phases for chromatographic separations applying a gradient elution. The HPLC gradient program was the following: between 0 and 10 min, a ratio of 70% A and 30% B; from 10 to 20 min, linearly increasing to a ratio of 50% A and 50% B; from 20 to 21 min, maintained at a ratio of 50% A and 50% B; from 21 to 22 min, linearly decreasing back to a ratio of 70% A and 30% B; and between 22 min and 30 min, maintained at a ratio of 70% A and 30% B. The run time was 30 min, the column temperature was adjusted to 35 °C, and the flow rate was 1 mL/min.

[3] = molecular target: T2, CYP1A2 (Macaca fascicularis, UniProt O77809); experiment: CYP1A2 fluorometric activity assay in cynomolgus monkey hepatic microsomes; type: in vitro ADME; set-up: cynomolgus monkey microsomal suspension (Primacyt, Schwerin, Germany, protein concentration: 5 mg/mL); tissue Primacyt, Schwerin, Germany; host or cells: liver (hepatic microsomes); details: for CYP1A2 in the cynomolgus monkey microsomal model: inhibitors at 50 µM
T2 sequence (O77809 1-516): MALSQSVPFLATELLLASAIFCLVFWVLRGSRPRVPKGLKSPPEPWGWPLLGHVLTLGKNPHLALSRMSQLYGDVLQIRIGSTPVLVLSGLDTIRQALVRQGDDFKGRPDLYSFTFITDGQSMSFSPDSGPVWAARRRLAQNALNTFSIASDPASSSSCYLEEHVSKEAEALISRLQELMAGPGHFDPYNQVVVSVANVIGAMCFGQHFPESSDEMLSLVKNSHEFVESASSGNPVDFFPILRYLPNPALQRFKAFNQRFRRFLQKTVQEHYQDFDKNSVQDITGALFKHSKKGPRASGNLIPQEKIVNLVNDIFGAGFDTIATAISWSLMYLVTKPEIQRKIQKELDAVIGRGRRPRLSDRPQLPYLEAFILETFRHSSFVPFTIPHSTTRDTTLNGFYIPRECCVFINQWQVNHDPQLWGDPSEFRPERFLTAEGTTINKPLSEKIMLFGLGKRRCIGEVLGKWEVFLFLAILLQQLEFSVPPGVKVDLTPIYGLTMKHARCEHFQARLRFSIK
Procedure: as §1

[4] = 60 min microsomal stability assay (UPLC-MS/MS), rat liver microsomes; type: in vitro ADME; details: rat microsomes, 50 µM, 0.6 mg/mL protein, mean ± SD (n = 3)
Procedure: as §2, §3

[5] = 60 min microsomal stability assay (UPLC-MS/MS), beagle liver microsomes; type: in vitro ADME; details: beagle microsomes, 50 µM, 0.6 mg/mL protein, mean ± SD (n = 3)
Procedure: as §2, §3

[6] = molecular target: T3, CYP1A2 (Canis lupus familiaris, UniProt P56592); experiment: CYP1A2 fluorometric activity assay in beagle hepatic microsomes; type: in vitro ADME; details: 15 min at 37 °C
T3 construct: endogenous in cells; host or cells: beagle hepatocytes
T3 sequence (P56592 1-512): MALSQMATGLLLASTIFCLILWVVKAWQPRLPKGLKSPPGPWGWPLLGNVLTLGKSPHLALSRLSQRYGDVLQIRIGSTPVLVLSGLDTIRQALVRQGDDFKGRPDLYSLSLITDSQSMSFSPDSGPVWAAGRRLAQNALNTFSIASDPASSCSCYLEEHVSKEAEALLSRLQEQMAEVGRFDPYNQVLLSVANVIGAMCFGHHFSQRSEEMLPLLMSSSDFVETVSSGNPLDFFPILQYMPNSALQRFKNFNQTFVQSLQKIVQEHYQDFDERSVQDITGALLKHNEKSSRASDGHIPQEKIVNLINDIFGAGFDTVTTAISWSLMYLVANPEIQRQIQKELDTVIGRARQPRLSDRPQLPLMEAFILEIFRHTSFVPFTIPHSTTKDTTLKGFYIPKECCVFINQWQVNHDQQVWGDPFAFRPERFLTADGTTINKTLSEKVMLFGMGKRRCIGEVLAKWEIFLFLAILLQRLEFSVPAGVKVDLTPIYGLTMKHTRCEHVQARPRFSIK
Procedure: as §1

[7] = molecular target: T3, CYP1A2; type: cell-based; details: dog, 10 µM
Procedure: (§4) For the measurements of CYP1A2 activities, hepatocytes were grown on 24-well collagen-coated membrane inserts (Costar Transwell-PTFE membrane, 6.5 mm, pore size: 0.4 µm, Merck, Darmstadt, Germany). […] The determination of the CYP1A2 activities were performed using the P450-Glo CYP450 Assay (Promega, Madison, WI, USA) according to the manufacturer’s instructions.

[8] = molecular target: T2, CYP1A2; details: 10 µM
Procedure: as §4

[9] = molecular target: T1, CYP1A2; experiment: CYP1A2 luminescent (P450-Glo) activity assay in rat hepatocytes; type: cell-based; set-up: endogenous in cells; host or cells: rat hepatocytes; details: positive control at 10 µM
Procedure: as §4

[10] = inhibitors at 50 µM, vs untreated control

SMILES	rat hepatic microsomal CYP1A2 isoenzyme activity [1, 10]	depletion percentage of the parent compound [2] [%]	IC50 [3] [µM]	CYP1A2 in the cynomolgus monkey microsomal model [3]	depletion percentage of the parent compound [4] [%]	depletion percentage of the parent compound [5] [%]	beagle hepatic microsomal CYP1A2 isoenzyme activity [6, 10]	CYP1A2 activity in beagle hepatocytes [7]	rat hepatic microsomal CYP1A2 isoenzyme activity ([1]; reference inhibitor at 6 µM)	CYP1A2 activity in cynomolgus monkey hepatocytes [8]	CYP1A2 activity in rat hepatocytes [9]	beagle hepatic microsomal CYP1A2 isoenzyme activity ([6]; reference inhibitor at 6 µM)
COc1ccc(-c2cccc(S(=O)(=O)N[C@@H](Cc3cccc(C(=N)N)c3)C(=O)N3CCC(NC(=O)NC4CCCCC4)CC3)c2)c(OC)c1 [MI-463]	suppressed	17.7 ± 4.6	2.4 ± 1.4	inhibited	15.1 ± 6.5	15.7 ± 8	–	–	–	–	–	–
N=C(N)c1cccc(C[C@H](NS(=O)(=O)c2cccc(-c3cc(CO)ccc3Cl)c2)C(=O)N2CCC(CCNC(=O)NC3CCCCC3)CC2)c1 [MI-482]	did not inhibit CYP1A2 function	15.1 ± 7.3	0.21 ± 0.09	inhibited	31.4 ± 1.1	39.3 ± 6	reduced the activity of CYP1A2	–	–	–	–	–
O=c1cc(-c2ccccc2)oc2c1ccc1ccccc12 [α-naphthoflavone, reference compound]	–	–	–	–	–	–	–	significantly suppress CYP1A2 activities	significantly suppressed CYP1A2 activities	significantly suppress CYP1A2 activities	significantly suppress CYP1A2 activities	significantly suppressed CYP1A2 activities
